The source of these data is patent US20250353873A1, “COMPOUNDS AND METHODS FOR MODULATING APOE EXPRESSION” (Ionis Pharmaceuticals, Inc., priority 2024, published 2025).

Data set [1] concerns human APOE RNA. Description: Dose-dependent inhibition of human APOE RNA in HepG2 cells, electroporation, 24 hours (Example 6). The class given is cell-based. The gist of the method:
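IC50 derived from APOE RNA levels, given as percent of untreated control after GAPDH normalization (probe sets RTS3073 and RTS104). Oligonucleotides were delivered at multiple concentrations by electroporation into HepG2 cells seeded at 50,000 per well.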

Data set [2] deals with human APOE RNA. As to the kind of experiment: Activity in APOE 1549 knock-in mice, single ICV bolus, 4 weeks (Example 8). The class given is in vivo. The following applies: n = 2, single ICV bolus of 300 μg, four weeks post treatment, Table 18. Here is the method:
Modified oligonucleotides described above were tested in the 1549 APOE knock-in mouse model described above.
APOE knock-in mice were divided into groups of either 2 or 6 mice each as described in the tables below. Each mouse received a single intracerebroventricular (ICV) bolus of 300 μg of modified oligonucleotide. A group of either 3 or 6 mice received a single ICV bolus with PBS as a negative control.
Four weeks post treatment, mice were sacrificed and RNA was extracted from cortical brain tissue and spinal cord for quantitative real-time RT-PCR analysis of RNA expression of APOE using primer probe set RTS3073 (described herein above). APOE RNA levels were normalized to mouse Ppia. Mouse Ppia was amplified using primer probe set m_cyclo24 (described herein above). Results are presented as percent human APOE RNA relative to the amount of human APOE RNA in PBS treated animals, (% control). Each experiment is identified in separate tables below.

Data set [3] has as its system human APOE RNA. As to the kind of experiment: Activity in APOE C57BL/6NTac-Apoeem7250 knock-in mice, single ICV bolus, 20 weeks (Example 13). The class given is in vivo. The following applies: single ICV bolus 300 μg, 20 weeks post treatment, normalized to mouse Ppia. The gist of the method:
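Cortical and spinal cord RNA was assayed by real-time RT-PCR for human APOE, normalized to mouse Ppia and reported as percent of PBS controls. Tissue was taken twenty weeks after one 300 μg intracerebroventricular bolus in APOE knock-in mice, 4 per group.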

Strand notation (5' to 3'): a small letter for the sugar, then the base; units joined by * are phosphorothioate-linked, units joined directly phosphodiester-linked; [ ] holds rarer units or linkages, { } end groups; capitals alone tell only the bases. [ms] = mesyl phosphoramidate linkage; e = 2'-O-(2-methoxyethyl) (MOE); [5mC] = 5-methylcytosine; d = 2'-deoxy (DNA)

The IC50 is the point on the concentration scale where inhibition reaches its midpoint. With “1736523: 6-10-4 MOE gapmer CTTGGTGAATCTTTATTAAA, linkages ssoooszzssssssssoss (e[5mC]*eT*eTeGeGeT*dG[ms]dA[ms]dA*dT*d[5mC]*dT*dT*dT*dA*dT*eTeA*eA*eA) [compound 1736523]”, in the data set with human APOE RNA [1], half-maximal inhibition (IC50) was put at 670 nM. Besides, the “APOE RNA (% UTC)” value is on record as 97 % UTC in the data set with human APOE RNA [1] (5 nM); 114 % UTC in the data set with human APOE RNA [1] (13 nM); 108 % UTC in the data set on human APOE RNA [1] (33 nM); 79 % UTC in the data set with human APOE RNA [1] (82 nM); 78 % UTC in the data set on human APOE RNA [1] (205 nM); 47 % UTC in the data set on human APOE RNA [1] (512 nM). For the same substance, the “APOE RNA (% UTC)” value with human APOE RNA [1] (1,280 nM) is listed as 29 % UTC; in the data set on human APOE RNA [1] (3,200 nM), 39 % UTC; in the data set with human APOE RNA [1] (8,000 nM) it was 5 % UTC; with human APOE RNA [1] (20,000 nM), 4 % UTC. For the same substance, the “APOE RNA (% control) Cortex” value in the data set with human APOE RNA [2] is listed as 42 % control; in the data set on human APOE RNA [3], 73 % control. Besides, the “APOE RNA (% control) Spinal Cord” value came to 34 % control in the data set with human APOE RNA [2] and 44 % control with human APOE RNA [3].
On to “1736524: 6-10-4 MOE gapmer CTTGGTGAATCTTTATTAAA, linkages sssooozzssssssssoss (e[5mC]*eT*eT*eGeGeTdG[ms]dA[ms]dA*dT*d[5mC]*dT*dT*dT*dA*dT*eTeA*eA*eA) [compound 1736524]”, for which half-maximal inhibition in the data set on human APOE RNA [1] (IC50) was put at 1090 nM. Further, the “APOE RNA (% UTC)” value is 97 % UTC in the data set with human APOE RNA [1] (5 nM); 101 % UTC in the data set with human APOE RNA [1] (13 nM); 89 % UTC with human APOE RNA [1] (33 nM); 91 % UTC with human APOE RNA [1] (82 nM); 66 % UTC with human APOE RNA [1] (205 nM); 66 % UTC in the data set with human APOE RNA [1] (512 nM). Also, the “APOE RNA (% UTC)” value in the data set with human APOE RNA [1] (1,280 nM) was 39 % UTC; with human APOE RNA [1] (3,200 nM), 34 % UTC; in the data set on human APOE RNA [1] (8,000 nM), 28 % UTC; in the data set with human APOE RNA [1] (20,000 nM), 17 % UTC. Besides, the “APOE RNA (% control) Cortex” value in the data set with human APOE RNA [2] is 36 % control; in the data set with human APOE RNA [3], 67 % control. Further, the “APOE RNA (% control) Spinal Cord” value came out at 31 % control with human APOE RNA [2] and 62 % control with human APOE RNA [3].
For the substance “1736525: 6-10-4 MOE gapmer CTTGGTGAATCTTTATTAAA, linkages sooosszzsssssssssss (e[5mC]*eTeTeGeG*eT*dG[ms]dA[ms]dA*dT*d[5mC]*dT*dT*dT*dA*dT*eT*eA*eA*eA) [compound 1736525]”, the IC50 in the data set on human APOE RNA [1] was found to be 1280 nM. Moreover, the “APOE RNA (% UTC)” value in the data set with human APOE RNA [1] (5 nM) came out at 101 % UTC; with human APOE RNA [1] (13 nM), 100 % UTC; with human APOE RNA [1] (33 nM) it was 106 % UTC; with human APOE RNA [1] (82 nM), 113 % UTC; in the data set on human APOE RNA [1] (205 nM) it was 70 % UTC; with human APOE RNA [1] (512 nM), 69 % UTC. The “APOE RNA (% UTC)” value in the data set with human APOE RNA [1] (1,280 nM) was determined as 37 % UTC; with human APOE RNA [1] (3,200 nM) it was 42 % UTC; in the data set with human APOE RNA [1] (8,000 nM) it was 22 % UTC; in the data set with human APOE RNA [1] (20,000 nM), 7 % UTC. The “APOE RNA (% control) Cortex” value with human APOE RNA [2] came out at 35 % control; with human APOE RNA [3], 71 % control. Further, the “APOE RNA (% control) Spinal Cord” value was found to be 41 % control in the data set with human APOE RNA [2] and 118 % control with human APOE RNA [3].
Substance “1736527: 6-10-4 MOE gapmer CTTGGTGAATCTTTATTAAA, linkages sssooozzsssssssssss (e[5mC]*eT*eT*eGeGeTdG[ms]dA[ms]dA*dT*d[5mC]*dT*dT*dT*dA*dT*eT*eA*eA*eA) [compound 1736527]” gave a 50% inhibitory concentration (IC50) in the data set with human APOE RNA [1] of 1580 nM. Also, the “APOE RNA (% UTC)” value stood at 104 % UTC with human APOE RNA [1] (5 nM); 108 % UTC in the data set on human APOE RNA [1] (13 nM); 96 % UTC in the data set with human APOE RNA [1] (33 nM); 97 % UTC in the data set with human APOE RNA [1] (82 nM); 92 % UTC with human APOE RNA [1] (205 nM); 63 % UTC in the data set on human APOE RNA [1] (512 nM). Further, the “APOE RNA (% UTC)” value in the data set on human APOE RNA [1] (1,280 nM) was 37 % UTC; in the data set on human APOE RNA [1] (3,200 nM), 37 % UTC; in the data set on human APOE RNA [1] (8,000 nM) it was 34 % UTC; with human APOE RNA [1] (20,000 nM), 23 % UTC. Besides, the “APOE RNA (% control) Cortex” value stood at 37 % control with human APOE RNA [2] and 64 % control in the data set with human APOE RNA [3]. The “APOE RNA (% control) Spinal Cord” value with human APOE RNA [2] worked out at 54 % control; with human APOE RNA [3], 58 % control.
